Results from patent publication US9597302B1, “Combination of dofetilide and mexiletine for the prevention and treatment of atrial fibrillation” (Heart Rhythm Solutions, Inc., priority 2015, dated 2017).
“Also recorded” adds a separate entry of the source.

Tests used:
[1] = tested on: arterially perfused rabbit atrial wedge preparations; test: Atrial action potential duration (APD90) in arterially perfused rabbit atrial wedge preparations; settings: dofetilide 3 nM and 10 nM; BCL 1000 ms or 500 ms (FIG. 1)
Experimental: (§1) Rabbits (New Zealand White) of either sex, weighing 2.0-2.8 kg were injected with heparin (800 U/kg) via an ear vein and anesthetized by intramuscular injection of xylazine (5 mg/kg) and intravenous administration of ketamine HCl (30-35 mg/kg, i.v.). The chest was opened via a left thoracotomy, and the heart was excised and placed in a cardioplegic solution consisting of cold (4° C.) normal Tyrode's solution.
Surgical preparation of the rabbit right or left atrial wedge was essentially similar to that in Preclinical assessment of drug-induced proarrhythmias: role of the arterially perfused rabbit left ventricular wedge preparation,^18 herein incorporated by reference. […]
Two extracellular silver/silver chloride electrodes were placed on the endocardial or epicardial surfaces to record bipolar atrial electrograms (EGM). A transmural ECG was recorded in the ventricular wedge preparation using two extracellular silver/silver chloride electrodes placed in the bath 0.5 to 1.5 cm from the epicardial and endocardial surfaces of the preparation (Epi: “+” pole). Transmembrane action potential was recorded from the endocardium or epicardium using the floating glass microelectrodes. […]

[2] = literature refs 19-21; cited from earlier work
[3] = tested on: arterially-perfused rabbit left ventricular wedge preparations; test: Dofetilide-induced EAD, R-on-T extrasystoles and TdP in arterially-perfused rabbit left ventricular wedge preparations
Experimental: as §1
(§2) Surgical preparation of the rabbit right or left atrial wedge was essentially similar to that in Preclinical assessment of drug-induced proarrhythmias: role of the arterially perfused rabbit left ventricular wedge preparation,^18 herein incorporated by reference. Briefly, the atrial preparation was dissected from the rabbit heart and cannulated via a coronary artery branch, either from the right coronary artery (the right atrial wedge) or the left coronary artery (the left atrial wedge), and perfused with a cardioplegic solution. Similarly, the left ventricular wedge preparation was dissected from the rabbit heart and arterially cannulated via a branch of left coronary artery. The atrial or ventricular wedge preparation was then placed in a small tissue bath and arterially perfused with Tyrode's solution containing 4.0 mM K^+ buffered with 95% O2 and 5% CO2 at a temperature of 35.7±0.1° C. The preparations were paced at basic cycle lengths (BCL) of 300, 500, 1000 and 2000 ms.
Two extracellular silver/silver chloride electrodes were placed on the endocardial or epicardial surfaces to record bipolar atrial electrograms (EGM). A transmural ECG was recorded in the ventricular wedge preparation using two extracellular silver/silver chloride electrodes placed in the bath 0.5 to 1.5 cm from the epicardial and endocardial surfaces of the preparation (Epi: “+” pole). Transmembrane action potential was recorded from the endocardium or epicardium using the floating glass microelectrodes. Atrial action potential duration at 90% repolarization (APD90) was used for data analysis.
Early afterdepolarization (EAD), EAD-dependent R-on-T extrasystoles and torsade de pointes (TdP) were induced by dofetilide in the rabbit left ventricular wedges which were paced at a BCL of 2000 ms and perfused with Tyrode's solution containing 3 mM K^+, which is equivalent to hypokalemia in humans. Lower K^+ potentiated the effect of dofetilide to induced EAD, R-on-T and TdP. The K^+ concentration in Tyrode's solution remained the same when the effect of mexiletine on dofetilide-induced EAD, R-on-T and TdP was examined.

[4] = tested on: arterially-perfused rabbit atrial wedge preparations; test: Induction of atrial fibrillation by programming stimulation in arterially-perfused rabbit atrial wedge preparations; settings: for suppression of induction of atrial fibrillation: programming stimulation, concentrations of Table 1
Experimental: as §1, §2
Atrial fibrillation was induced by programming stimulation using single or double extrastimuli (S2 and S3). Basic cycle lengths (S1 and S1) of 1000 and 500 ms were used for induction of atrial fibrillation.

[5] = tested on: arterially perfused rabbit atrial wedge preparations; test: Atrial effective refractory period (ERP) and loss of excitation in arterially perfused rabbit atrial wedge preparations; settings: for atrial preparations that lost excitation, drug alone: dofetilide (10 nM) or mexiletine (30 μM) used alone; for effect on atrial ERP, drug alone: each drug alone (FIG. 2)
Experimental: as §1, §2
Atrial effective refractory period (ERP) was measured by introducing an extrastimulus (S2) repeatedly every 10 pulses (S1) at two folds of the pacing threshold. […] In the preparations that lost excitation intermittently after drug interventions, the ERP was then considered to be equal to the S1-S1 interval.

[6] = dofetilide 10 nM, BCL 2000 ms, 3 mM K+

Row | SMILES | effect on atrial APD90 [1] | therapeutical plasma concentration in humans [2] [µM] | EAD (incidence) [3, 6] | R-on-T (incidence) [3, 6] | TdP (incidence) [3, 6] | Induced Atrial Fibrillation (incidence) ([4]; dofetilide 3 nM) | effect on atrial fibrillation readily induced by single stimuli ([4]; one atrial wedge preparation, dofetilide alone 10 nM and 30 nM (FIG. 5)) | suppression of induction of atrial fibrillation [4] | atrial preparations that lost excitation, drug alone [5] | effect on atrial ERP, drug alone [5] | reversibility of the effect on dofetilide-induced EAD, R-on-T and TdP ([3]; after removal of mexiletine EAD, R-on-T reoccurred) | effect on EAD, R-on-T and TdP induced by 10 nM dofetilide ([3]; mexiletine 10 μM, low (3 mM) K+ (FIG. 6)) | Induced Atrial Fibrillation (incidence) ([4]; mexiletine 10 μM)
1 | CN(CCOc1ccc(NS(C)(=O)=O)cc1)CCc1ccc(NS(C)(=O)=O)cc1 [dofetilide, N-[4-(2-{[2-(4-methanesulfonamidophenoxy)ethyl](methyl)amino}ethyl)phenyl] methanesulfonamide] | significantly increased | ~0.003 | 7 of 7 | 5 of 7 | 1 of 7 | 3 of 6 preparations | failed to suppress induction of atrial fibrillation and premature beats; also recorded: reduced only duration and incidences of atrial fibrillation | partially suppressed | none | mildly to moderately prolonged |  |  | 
2 | Cc1cccc(C)c1OCC(C)N (racemic) [mexiletine, (RS)-1-(2,6-dimethylphenoxy)propan-2-amine] |  | ~10 |  |  |  |  |  | not | none | mildly to moderately prolonged | washable | effectively abolished | 4 of 4 preparations
